Measured values published in patent US8273880B2, “Pyrazole compounds with inhibitory activity against ROS kinase” (Korea Institute of Science and Technology, priority 2009, dated 2012).
Entries after “also recorded” stand apart in the source; their conditions may differ.

How the values were obtained:
Assay type in all cases: biochemical
45 different kinases = assay: Kinase selectivity from screening over 45 different kinases
Experimental: (§1) Kinase screening was performed using a “HotSpot” assay platform commercially available from Reaction Biology Corporation. For this kinase screening, reaction buffers were based on 20 mM Hepes (pH 7.5), 10 mM MgCl2, 1 mM EGTA, 0.02% Brij35, 0.02 mg/mL BSA, 0.1 mM Na3VO4, 2 mM DTT, and 1% DMSO, with supplementary factors necessary for respective kinase reactions added thereto. In each enzyme reaction, […] of each kinase was used together with a fresh reaction buffer and appropriate supplementary factors. A solution of each compound in DMSO was added in a suitable concentration to the reaction buffer. Kinase reaction started with the introduction of […] (specific activity […]) and continued for 2 hours at room temperature.
(§2) 1) Screening of Compounds Over 45 Different Kinases
(§3) Each compound was tested twice at a single dose concentration of 10 μM. […] The reaction was performed with 10 μM ATP.

ROS kinase = ROS kinase (Homo sapiens, UniProt P08922); assay: ROS kinase screening (HotSpot, IC50 mode); design: purchased Reaction Biology Corporation; conditions: 10-dose IC50 mode starting from 20 μM; 10 μM ATP; read-out: Inhibitory Activity against ROS (IC50)
Experimental: as §1
The reaction was performed with 10 μM ATP.

DNA-PK = biological target: T1, DNA-PK (Homo sapiens, UniProt P78527); assay: HotSpot kinase screening over 45 different kinases, single dose 10 μM; conditions: single dose concentration of 10 μM, 10 μM ATP
T1 construct: purchased Reaction Biology Corporation
Experimental: as §1, §2, §3

FAK/PTK2 = biological target: T2, FAK/PTK2 (Homo sapiens, UniProt Q05397); assay: as above; conditions: single dose concentration of 10 μM, 10 μM ATP
T2 construct: purchased Reaction Biology Corporation
Experimental: as §1, §2, §3

PKCa = biological target: T3, PKCa (Homo sapiens, UniProt P17252); assay: as above; conditions: single dose concentration of 10 μM, 10 μM ATP
T3 construct: purchased Reaction Biology Corporation
Experimental: as §1, §2, §3

LYN = biological target: T4, LYN (Homo sapiens, UniProt P07948); assay: as above; conditions: single dose concentration of 10 μM, 10 μM ATP
T4 construct: purchased Reaction Biology Corporation
Experimental: as §1, §2, §3

TIE2/TEK = biological target: T5, TIE2/TEK (Homo sapiens, UniProt Q02763); assay: as above; conditions: single dose concentration of 10 μM, 10 μM ATP
T5 construct: purchased Reaction Biology Corporation
Experimental: as §1, §2, §3

JNK1a1 = biological target: T6, JNK1a1 (Homo sapiens, UniProt P45983); assay: as above; conditions: single dose concentration of 10 μM, 10 μM ATP
T6 construct: purchased Reaction Biology Corporation
Experimental: as §1, §2, §3

CDK1/cyclinB = biological target: T7, CDK1/cyclinB (Homo sapiens, UniProt P06493); assay: as above; conditions: single dose concentration of 10 μM, 10 μM ATP
T7 construct: purchased Reaction Biology Corporation
Experimental: as §1, §2, §3

RON/MST1R = biological target: T8, RON/MST1R (Homo sapiens, UniProt Q04912); assay: as above; conditions: single dose concentration of 10 μM, 10 μM ATP
T8 construct: purchased Reaction Biology Corporation
Experimental: as §1, §2, §3

RAF1 = assay: as above; conditions: single dose concentration of 10 μM, 10 μM ATP
Experimental: as §1, §2, §3

Ros/Ros1 = biological target: T9, Ros/Ros1 (Homo sapiens, UniProt P08922); assay: as above; conditions: single dose concentration of 10 μM, 10 μM ATP
T9 construct: purchased Reaction Biology Corporation
Experimental: as §1, §2, §3

FLT1 = biological target: T10, FLT1 (Homo sapiens, UniProt P17948); assay: as above; conditions: single dose concentration of 10 μM, 10 μM ATP
T10 construct: purchased Reaction Biology Corporation
Experimental: as §1, §2, §3

Aurora A = biological target: T11, Aurora A (Homo sapiens, UniProt O14965); assay: as above; conditions: single dose concentration of 10 μM, 10 μM ATP
T11 construct: purchased Reaction Biology Corporation
Experimental: as §1, §2, §3

CK1epsilon = biological target: T12, CK1epsilon (Homo sapiens, UniProt P49674); assay: as above; conditions: single dose concentration of 10 μM, 10 μM ATP
T12 construct: purchased Reaction Biology Corporation
Experimental: as §1, §2, §3

BRAF = biological target: T13, BRAF (Homo sapiens, UniProt P15056); assay: as above; conditions: single dose concentration of 10 μM, 10 μM ATP
T13 construct: purchased Reaction Biology Corporation
Experimental: as §1, §2, §3

YES = biological target: T14, YES (Homo sapiens, UniProt P07947); assay: as above; conditions: single dose concentration of 10 μM, 10 μM ATP
T14 construct: purchased Reaction Biology Corporation
Experimental: as §1, §2, §3

PIM1 = biological target: T15, PIM1 (Homo sapiens, UniProt P11309); assay: as above; conditions: single dose concentration of 10 μM, 10 μM ATP
T15 construct: purchased Reaction Biology Corporation
Experimental: as §1, §2, §3

KDR/VEGFR2 = biological target: T16, KDR/VEGFR2 (Homo sapiens, UniProt P35968); assay: as above; conditions: single dose concentration of 10 μM, 10 μM ATP
T16 construct: purchased Reaction Biology Corporation
Experimental: as §1, §2, §3

CHK1 = biological target: T17, CHK1 (Homo sapiens, UniProt O14757); assay: as above; conditions: single dose concentration of 10 μM, 10 μM ATP
T17 construct: purchased Reaction Biology Corporation
Experimental: as §1, §2, §3

EGFR = biological target: T18, EGFR (Homo sapiens, UniProt P00533); assay: as above; conditions: single dose concentration of 10 μM, 10 μM ATP
T18 construct: purchased Reaction Biology Corporation
Experimental: as §1, §2, §3

c-MET = biological target: T19, c-MET (Homo sapiens, UniProt P08581); assay: as above; conditions: single dose concentration of 10 μM, 10 μM ATP
T19 construct: purchased Reaction Biology Corporation
Experimental: as §1, §2, §3

FGR = biological target: T20, FGR (Homo sapiens, UniProt P09769); assay: as above; conditions: single dose concentration of 10 μM, 10 μM ATP
T20 construct: purchased Reaction Biology Corporation
Experimental: as §1, §2, §3

TRKA/NTRK1 = biological target: T21, TRKA/NTRK1 (Homo sapiens, UniProt P04629); assay: as above; conditions: single dose concentration of 10 μM, 10 μM ATP
T21 construct: purchased Reaction Biology Corporation
Experimental: as §1, §2, §3

[1] = compared to enzyme activity in DMSO control

T17 sequence (O14757 whole entry): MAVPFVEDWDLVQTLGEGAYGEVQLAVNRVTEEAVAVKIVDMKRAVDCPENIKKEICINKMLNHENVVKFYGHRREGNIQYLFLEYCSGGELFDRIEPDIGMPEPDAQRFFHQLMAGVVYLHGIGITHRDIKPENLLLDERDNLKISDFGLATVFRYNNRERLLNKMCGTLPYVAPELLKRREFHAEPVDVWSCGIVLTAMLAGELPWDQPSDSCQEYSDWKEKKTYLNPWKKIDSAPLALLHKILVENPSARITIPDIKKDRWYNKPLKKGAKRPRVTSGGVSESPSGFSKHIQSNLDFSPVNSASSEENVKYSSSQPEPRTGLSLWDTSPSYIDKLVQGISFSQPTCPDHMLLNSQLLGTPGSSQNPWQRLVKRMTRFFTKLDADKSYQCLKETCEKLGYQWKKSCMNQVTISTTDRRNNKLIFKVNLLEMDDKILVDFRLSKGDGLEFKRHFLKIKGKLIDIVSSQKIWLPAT
T13 sequence (P15056 whole entry): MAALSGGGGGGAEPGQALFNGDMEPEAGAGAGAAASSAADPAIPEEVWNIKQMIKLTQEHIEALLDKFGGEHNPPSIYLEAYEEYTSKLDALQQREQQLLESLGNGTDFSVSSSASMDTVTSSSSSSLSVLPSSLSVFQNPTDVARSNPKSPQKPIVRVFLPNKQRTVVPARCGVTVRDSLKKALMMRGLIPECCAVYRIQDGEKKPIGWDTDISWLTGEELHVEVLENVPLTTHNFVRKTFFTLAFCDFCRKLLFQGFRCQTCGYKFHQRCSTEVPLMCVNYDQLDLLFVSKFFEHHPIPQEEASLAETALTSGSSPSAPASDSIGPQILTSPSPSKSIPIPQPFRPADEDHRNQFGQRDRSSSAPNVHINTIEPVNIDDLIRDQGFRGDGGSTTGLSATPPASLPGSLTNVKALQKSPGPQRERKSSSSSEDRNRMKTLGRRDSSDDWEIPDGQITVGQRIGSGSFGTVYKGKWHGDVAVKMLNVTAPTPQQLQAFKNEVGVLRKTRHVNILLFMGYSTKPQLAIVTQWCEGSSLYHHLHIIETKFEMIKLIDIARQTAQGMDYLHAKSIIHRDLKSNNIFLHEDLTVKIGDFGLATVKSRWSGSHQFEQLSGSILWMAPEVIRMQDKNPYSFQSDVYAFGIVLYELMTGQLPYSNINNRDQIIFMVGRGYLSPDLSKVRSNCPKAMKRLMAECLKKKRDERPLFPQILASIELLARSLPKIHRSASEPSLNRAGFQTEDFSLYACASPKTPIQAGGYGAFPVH
T6 sequence (P45983 1-384 isoform P45983-2): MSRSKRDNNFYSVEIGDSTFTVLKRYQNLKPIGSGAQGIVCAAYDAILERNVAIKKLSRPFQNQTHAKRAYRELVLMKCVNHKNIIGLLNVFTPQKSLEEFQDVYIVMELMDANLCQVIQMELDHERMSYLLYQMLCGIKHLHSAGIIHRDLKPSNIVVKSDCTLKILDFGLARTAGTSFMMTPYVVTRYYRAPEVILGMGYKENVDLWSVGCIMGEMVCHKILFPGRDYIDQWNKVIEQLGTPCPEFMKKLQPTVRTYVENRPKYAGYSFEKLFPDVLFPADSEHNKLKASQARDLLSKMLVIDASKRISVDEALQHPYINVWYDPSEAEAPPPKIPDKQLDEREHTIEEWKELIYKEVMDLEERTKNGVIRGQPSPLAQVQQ
T21 sequence (P04629 33-796): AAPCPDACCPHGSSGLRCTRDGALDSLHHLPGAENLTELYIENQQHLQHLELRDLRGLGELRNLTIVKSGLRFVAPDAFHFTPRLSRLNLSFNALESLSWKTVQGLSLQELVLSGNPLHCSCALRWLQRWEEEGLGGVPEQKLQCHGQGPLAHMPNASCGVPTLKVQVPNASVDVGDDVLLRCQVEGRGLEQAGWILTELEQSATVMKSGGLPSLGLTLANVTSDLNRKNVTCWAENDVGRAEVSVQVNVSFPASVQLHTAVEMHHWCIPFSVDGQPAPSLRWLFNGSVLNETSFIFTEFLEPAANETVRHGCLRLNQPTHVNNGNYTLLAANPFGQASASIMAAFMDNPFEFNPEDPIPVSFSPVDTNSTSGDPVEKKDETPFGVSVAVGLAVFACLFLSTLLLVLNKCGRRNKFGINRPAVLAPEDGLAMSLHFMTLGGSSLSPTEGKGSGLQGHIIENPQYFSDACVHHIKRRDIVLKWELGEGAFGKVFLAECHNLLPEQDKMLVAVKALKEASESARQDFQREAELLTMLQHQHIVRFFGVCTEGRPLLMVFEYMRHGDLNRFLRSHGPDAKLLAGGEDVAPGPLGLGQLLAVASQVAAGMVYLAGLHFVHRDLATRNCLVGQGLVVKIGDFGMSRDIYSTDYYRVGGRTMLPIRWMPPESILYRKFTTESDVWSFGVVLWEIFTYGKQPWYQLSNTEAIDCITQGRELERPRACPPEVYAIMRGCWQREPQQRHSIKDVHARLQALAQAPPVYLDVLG
T2 sequence (Q05397 whole entry): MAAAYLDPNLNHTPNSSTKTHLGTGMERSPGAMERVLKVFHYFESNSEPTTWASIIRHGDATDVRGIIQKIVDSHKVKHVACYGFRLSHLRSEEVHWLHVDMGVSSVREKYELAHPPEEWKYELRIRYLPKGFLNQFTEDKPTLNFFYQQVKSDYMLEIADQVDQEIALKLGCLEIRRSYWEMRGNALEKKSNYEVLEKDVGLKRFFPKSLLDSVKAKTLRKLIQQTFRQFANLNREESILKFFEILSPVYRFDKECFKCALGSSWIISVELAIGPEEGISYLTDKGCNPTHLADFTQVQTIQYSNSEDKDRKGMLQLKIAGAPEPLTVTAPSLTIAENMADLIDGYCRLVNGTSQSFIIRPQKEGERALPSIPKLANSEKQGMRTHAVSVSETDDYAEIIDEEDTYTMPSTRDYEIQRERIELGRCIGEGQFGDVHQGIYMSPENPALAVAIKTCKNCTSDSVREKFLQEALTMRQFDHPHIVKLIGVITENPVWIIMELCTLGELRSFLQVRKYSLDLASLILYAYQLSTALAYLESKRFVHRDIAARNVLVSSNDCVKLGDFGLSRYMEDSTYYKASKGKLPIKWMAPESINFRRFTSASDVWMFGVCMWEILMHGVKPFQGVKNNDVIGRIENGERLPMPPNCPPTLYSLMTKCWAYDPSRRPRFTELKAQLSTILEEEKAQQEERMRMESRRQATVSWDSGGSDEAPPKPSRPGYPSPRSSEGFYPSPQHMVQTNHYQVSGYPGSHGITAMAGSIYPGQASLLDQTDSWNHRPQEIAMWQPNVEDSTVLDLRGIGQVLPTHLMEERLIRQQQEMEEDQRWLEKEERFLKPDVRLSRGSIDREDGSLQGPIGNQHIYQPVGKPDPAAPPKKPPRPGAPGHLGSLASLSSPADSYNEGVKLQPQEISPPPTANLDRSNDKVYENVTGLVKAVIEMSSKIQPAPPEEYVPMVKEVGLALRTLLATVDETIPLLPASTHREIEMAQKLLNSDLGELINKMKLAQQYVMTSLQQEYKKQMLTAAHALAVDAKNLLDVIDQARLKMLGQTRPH
T15 sequence (P11309 whole entry): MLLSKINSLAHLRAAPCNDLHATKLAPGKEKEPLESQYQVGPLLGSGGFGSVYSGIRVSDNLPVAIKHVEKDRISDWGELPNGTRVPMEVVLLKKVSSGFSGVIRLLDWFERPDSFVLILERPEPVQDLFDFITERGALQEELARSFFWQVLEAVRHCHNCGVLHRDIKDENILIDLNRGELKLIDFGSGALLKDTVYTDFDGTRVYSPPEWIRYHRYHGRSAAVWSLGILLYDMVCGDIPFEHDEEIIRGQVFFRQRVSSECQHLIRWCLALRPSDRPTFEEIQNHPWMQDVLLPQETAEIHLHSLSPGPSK
T5 sequence (Q02763 23-1124): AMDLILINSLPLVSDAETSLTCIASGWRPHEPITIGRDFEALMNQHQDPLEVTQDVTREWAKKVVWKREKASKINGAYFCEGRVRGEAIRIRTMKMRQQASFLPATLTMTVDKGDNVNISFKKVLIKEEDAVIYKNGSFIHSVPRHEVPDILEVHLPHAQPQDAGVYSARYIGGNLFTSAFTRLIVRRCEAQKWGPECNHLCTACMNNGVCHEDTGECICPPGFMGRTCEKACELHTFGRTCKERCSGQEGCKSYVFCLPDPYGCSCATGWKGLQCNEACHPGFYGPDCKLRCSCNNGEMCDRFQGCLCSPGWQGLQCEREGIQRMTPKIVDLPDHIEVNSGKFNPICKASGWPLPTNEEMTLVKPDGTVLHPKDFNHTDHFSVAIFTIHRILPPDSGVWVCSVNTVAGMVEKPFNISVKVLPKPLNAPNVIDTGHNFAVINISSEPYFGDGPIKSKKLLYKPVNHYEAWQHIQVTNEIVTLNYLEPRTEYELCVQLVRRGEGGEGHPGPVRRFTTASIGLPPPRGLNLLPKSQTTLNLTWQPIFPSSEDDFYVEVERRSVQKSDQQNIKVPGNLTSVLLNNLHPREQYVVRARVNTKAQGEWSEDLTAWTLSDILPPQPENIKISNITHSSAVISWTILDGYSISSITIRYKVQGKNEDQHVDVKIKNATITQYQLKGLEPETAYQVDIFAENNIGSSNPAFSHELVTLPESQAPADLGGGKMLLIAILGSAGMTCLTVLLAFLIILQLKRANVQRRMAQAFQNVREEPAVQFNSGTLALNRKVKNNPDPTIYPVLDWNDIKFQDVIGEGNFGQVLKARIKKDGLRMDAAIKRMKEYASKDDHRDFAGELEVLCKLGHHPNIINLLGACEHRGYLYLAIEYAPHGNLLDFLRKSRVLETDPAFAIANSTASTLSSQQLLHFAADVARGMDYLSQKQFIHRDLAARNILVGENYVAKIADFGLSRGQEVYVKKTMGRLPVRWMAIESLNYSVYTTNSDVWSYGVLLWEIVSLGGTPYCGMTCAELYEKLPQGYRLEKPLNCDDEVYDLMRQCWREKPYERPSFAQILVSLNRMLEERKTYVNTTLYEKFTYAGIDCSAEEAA

In the case of `Cc1cc(O)cc(-c2nn(CC#N)cc2-c2cc(NC[C@H](C)O)nc(-c3cccnc3)n2)c1` [Example 10, [4-[6-(2(S)-hydroxypropylamino)-2-pyridin-3-yl-pyrimidin-4-yl]-3-(3-hydroxy-5-methylphenyl)-pyrazol-1-yl]acetonitrile], the “Notes (selectivity for ROS)” value (45 different kinases) is reported as “no inhibitory activity against almost all of the tested kinases, except for ROS kinase; also recorded: Selective for ROS”, the IC50 (ROS kinase) is reported as 0.199 µM and the inhibition at 10 µM (DNA-PK) is reported as 6.56%. For the same compound, the activity at 10 µM (DNA-PK; [1]) was 93.4%, the inhibition at 10 µM (FAK/PTK2) was 3.43% and the activity at 10 µM (FAK/PTK2; [1]) was 96.6%. It also gave an inhibition at 10 µM (PKCa) of 9.23%, an activity at 10 µM (PKCa; [1]) of 90.8% and an inhibition at 10 µM (LYN) of -1.45%. It also gave an activity at 10 µM (LYN; [1]) of 101%, an inhibition at 10 µM (TIE2/TEK) of 8.17% and an activity at 10 µM (TIE2/TEK; [1]) of 91.8%. It also gave an inhibition at 10 µM (JNK1a1) of 3.83%, an activity at 10 µM (JNK1a1; [1]) of 96.2% and an inhibition at 10 µM (CDK1/cyclinB) of 3.64%. For the same compound, the activity at 10 µM (CDK1/cyclinB; [1]) was 96.4%, the inhibition at 10 µM (RON/MST1R) was 28.8% and the activity at 10 µM (RON/MST1R; [1]) was 71.1%. For the same compound, the “Inhibition (%)” value (RAF1) was 20.39%, the “Activity (%)” value (RAF1; [1]) was 79.61% and the inhibition at 10 µM (Ros/Ros1) was 93.9%. For the same compound, the activity at 10 µM (Ros/Ros1; [1]) was 6.08%, the inhibition at 10 µM (FLT1) was -1.67% and the activity at 10 µM (FLT1; [1]) was 102%. It also gave an inhibition at 10 µM (Aurora A) of 21.8%, an activity at 10 µM (Aurora A; [1]) of 78.2% and an inhibition at 10 µM (CK1epsilon) of 9.32%. The activity at 10 µM (CK1epsilon; [1]) was 90.7%, the inhibition at 10 µM (BRAF) was 8.97% and the activity at 10 µM (BRAF; [1]) was 91%. For the same compound, the inhibition at 10 µM (YES) was -2.59%, the activity at 10 µM (YES; [1]) was 103% and the inhibition at 10 µM (PIM1) was 5.91%. The activity at 10 µM (PIM1; [1]) was 94.1%, the inhibition at 10 µM (KDR/VEGFR2) was -5.84% and the activity at 10 µM (KDR/VEGFR2; [1]) was 106%. The inhibition at 10 µM (CHK1) was 2.36%, the activity at 10 µM (CHK1; [1]) was 97.6% and the inhibition at 10 µM (EGFR) was -2.23%. It also gave an activity at 10 µM (EGFR; [1]) of 102%, an inhibition at 10 µM (c-MET) of 5.82% and an activity at 10 µM (c-MET; [1]) of 94.2%. The inhibition at 10 µM (FGR) was 3.34%, the activity at 10 µM (FGR; [1]) was 96.7% and the inhibition at 10 µM (TRKA/NTRK1) was -0.14%. For the same compound, the activity at 10 µM (TRKA/NTRK1; [1]) was 100%.
